{"source": "patent US8679478B2", "about": "“Methods of lysosomal storage disease therapy” (Duke University, priority 2010, dated 2014)", "assay_type_in_all_cases": "in vivo, mouse", "key": {"[1]": {"tested_on": "immune tolerant GAA-KO mice", "test": "Rotarod testing, ERT plus β2 agonist (Example 6)", "settings": "one week later (than 4 weeks); albuterol 30 mg/l drinking water plus ERT v. ERT alone", "protocol": "GAA-KO mice were administered four weekly doses of rhGAA (20 mg/kg), and treated with medium dose clenbuterol (n=7), albuterol (n=4) or untreated (n=6 or 3). […] Mean+/−standard deviation are shown. P values indicate statistically significant differences (lines).\nTwo β2 agonists were evaluated in combination with ERT, clenbuterol and albuterol. The dose of clenbuterol was reduced 5-fold from the concentration used in Example 4, to 6 mg/l in drinking water, while albuterol was evaluated at the higher dose (30 mg/l in drinking water). Groups of 3 month-old immune tolerant GAA-KO mice (Raben et al., Human Mol. Genet., 2001, 10:2039-2047) were treated with four weekly doses of rhGAA (20 mg/kg body weight), with or without concurrent β2 agonist treatment.\nMice were sacrificed 7 days after the last injection. Selected tissues were collected for GAA enzyme activity and glycogen content analyses. […] GAA activity and glycogen content analyses, Rotarod testing, and Western blot detection of CI-MPR was performed essentially as described (Koeberl et al., Mol. Genet. Metab., 2011, 103:107-112. Wire hang testing was performed with a 0.5 cm mesh hardware cloth fixed to an 8 by 10 inch frame. Mice were placed on the wire mesh, which was slowly inverted 6 inches over a cage containing paper bedding. The latency, or time until the mouse fell into the cage, was recorded."}, "[2]": {"tested_on": "GAA-KO mice", "test": "Glycogen content in muscles, ERT plus clenbuterol or albuterol", "settings": "ERT plus albuterol 30 μg/ml drinking water", "protocol": "FIG. 8A-8C depicts increased GAA uptake and increased glycogen clearance in GAA-KO mice following clenbuterol treatment and ERT. […] GAA-KO mice were administered four weekly doses of rhGAA (20 mg/kg), and treated with clenbuterol (n=6) or untreated (n=5). […] Mean+/−standard deviation are shown. Statistically significant differences indicated (*=p<0.05; **=p<0.01).\nGAA-KO mice were treated with weekly rhGAA (20 mg/kg): with medium clenbuterol, […] (n=6), with low clenbuterol, 1.3 mg/ml (n=6), with albuterol 30 mg/ml (n=4), or without drug treatment (n=3). Drugs were administered in the drinking water. Mean+/−s.d. shown. Statistically significant differences indicated (*=p<0.05; **=p<0.01).\n(§1) For in vivo analysis of AAV vectors, stocks were administered intravenously (via the retroorbital sinus) in 3 month-old and 15 month-old GAA-KO mice, and to 3 month-old tolerant GAA-KO and DKO mice. Clenbuterol (30 μg/ml) was administered to groups of 3 month-old vector-injected and mock-injected male GAA-KO mice in drinking water for 28 days. At the indicated time points post-injection, tissue samples were obtained and processed as described below. All animal procedures were done in accordance with Duke University Institutional Animal Care and Use Committee-approved guidelines. GAA activity and glycogen content were analyzed essentially as described (Sun et al., Mol. Ther., 2005, 11:889-898; Sun et al., Mol. Ther., 2005, 11: 57-65). Rotarod testing was performed essentially as described (Sun, B. D. et al. 2005). Western blotting of hGAA was performed essentially as described (Amalfitano et al., Proc. Natl. Acad. Sci. USA, 1999, 96: 8861-8866) using the hGAA monoclonal antibody (courtesy of Genzyme Corp., Framingham, Mass.) and the CI-MPR antibody (catalog number GTX28093; Gene Tex, Irvine, Calif.).\nThe efficacy from gene therapy was increased by β2 agonist stimulation from clenbuterol treatment, and this benefit might be expected to affect ERT in Pompe disease, as well. Therefore, groups of 3 month-old GAA-KO mice were treated with four weekly doses of rhGAA (20 mg/kg), with or without concurrent clenbuterol treatment."}, "[3]": {"tested_on": "immune tolerant GAA-KO mice", "test": "Glycogen content in tissues, ERT plus β2 agonist (Example 6)", "protocol": "(§2) Male GAA-KO mice were administered four weekly doses of 20 mg/kg body weight of rhGAA and sacrificed one week following the last injection. Groups of mice were treated with clenbuterol (n=6), albuterol (n=4) or untreated (n=6). Mice were euthanized for tissue analysis 5 weeks after initiation of ERT.\n(§3) Cerebral and cerebellar hemispheres were analyzed 5 weeks following the initiation of ERT. Groups of mice were treated with clenbuterol (n=6), albuterol (n=4) or untreated (n=6).\n(§4) Two β2 agonists were evaluated in combination with ERT, clenbuterol and albuterol. […] Groups of 3 month-old immune tolerant GAA-KO mice (Raben et al., Human Mol. Genet., 2001, 10:2039-2047) were treated with four weekly doses of rhGAA (20 mg/kg body weight), with or without concurrent β2 agonist treatment.\n(§5) Mice were sacrificed 7 days after the last injection. Selected tissues were collected for GAA enzyme activity and glycogen content analyses. All animal procedures were done in accordance with Duke University Institutional Animal Care and Use Committee-approved guidelines. GAA activity and glycogen content analyses, Rotarod testing, and Western blot detection of CI-MPR was performed essentially as described (Koeberl et al., Mol. Genet. Metab., 2011, 103:107-112. Wire hang testing was performed with a 0.5 cm mesh hardware cloth fixed to an 8 by 10 inch frame. Mice were placed on the wire mesh, which was slowly inverted 6 inches over a cage containing paper bedding. The latency, or time until the mouse fell into the cage, was recorded."}, "[4]": {"tested_on": "immune tolerant GAA-KO mice", "test": "Histopathology of brain, glycogen staining", "settings": "cerebellum; in comparison with ERT alone", "protocol": "Histopathology was performed to examine brain involvement, and glycogen accumulations were detected in the cerebellum with ERT alone. Albuterol and clenbuterol each reduced the glycogen staining in the cerebellum, in comparison with ERT alone."}, "[5]": {"tested_on": "immune tolerant GAA-KO mice", "test": "GAA activity in tissues, ERT plus β2 agonist (Example 6)", "protocol": "as §2, §3, §4, §5"}, "[6]": {"tested_on": "DKO mice", "test": "Glycogen clearance after rhGAA in DKO mice", "protocol": "(§6) CI-MPR-KO mice were generated using a muscle-specific promoter (muscle creatine kinase; CK) and the cre/loxP conditional knock out system essentially as described previously (Wylie et al., Am. J. Pathol., 2003, 162: 321-328). The muscle-specific CI-MPR-KO mice were crossed with GAA-KO mice to generate muscle specific DKO mice). This mouse colony was subsequently screened to be GAA−/−, M6PR flox/flox and MCK-Cre positive. These DKO mice and age matched Pompe mice were administered four weekly doses of 20 or 100 mg/kg rhGAA and sacrificed 3 days after the last injection. Selected tissues were collected for GAA enzyme activity levels, glycogen content depletion and Western blot analysis. Pompe and DKO mice injected with vehicle were used as controls.\nas §1\n(§7) To further understand the role of CI-MPR in recombinant human GAA (rhGAA) uptake and glycogen clearance specifically in Pompe disease, muscle-specific CI-MPR-KO mice were crossed with GAA-KO (Pompe disease) mice. […]"}, "[7]": {"tested_on": "CI-MPR-KO/GAA-KO (DKO) mice v. GAA-KO (Pompe disease) mice", "test": "GAA enzyme activity in tissues after rhGAA administration, DKO v. GAA-KO mice", "settings": "for GAA decrease in DKO v. GAA-KO (%): rhGAA four weekly doses, dose not given", "protocol": "as §6, §1\n(§8) To further understand the role of CI-MPR in recombinant human GAA (rhGAA) uptake and glycogen clearance specifically in Pompe disease, muscle-specific CI-MPR-KO mice were crossed with GAA-KO (Pompe disease) mice. The DKO mice were administered four weekly doses of 20 mg/kg and 100 mg/kg body weight of recombinant human rhGAA and sacrificed three days after the last injection to evaluate GAA enzyme levels and glycogen depletion in the target tissues. […]"}, "[8]": {"tested_on": "GAA-KO mice", "test": "Glycogen clearance after rhGAA in GAA-KO (Pompe) mice", "protocol": "as §6, §1, §7"}, "[9]": {"tested_on": "CI-MPR-KO/GAA-KO (DKO) mice v. GAA-KO (Pompe disease) mice", "test": "Glycogen content in tissues after rhGAA administration, DKO v. GAA-KO mice", "settings": "rhGAA four weekly doses, dose not given", "protocol": "as §6, §1, §8"}}, "data": [{"compound": "CC(C)(C)NCC(O)c1ccc(O)c(CO)c1", "note": "(stereo not drawn) [albuterol]", "values": [{"measurement": "Rotarod latency", "setting": "[1]", "result": "increased latency"}, {"measurement": "glycogen content of the quadriceps", "setting": "[2]", "result": "trend toward decreasing"}, {"measurement": "Glycogen content", "setting": "[3]; cerebellum, β2 agonist plus ERT v. ERT alone", "result": "reduced significantly"}, {"measurement": "Glycogen content", "setting": "[3]; liver, albuterol plus ERT v. ERT alone", "result": "significantly reduced"}, {"measurement": "Glycogen content", "setting": "[3]; quadriceps, albuterol plus ERT v. ERT alone", "result": "significantly reduced"}, {"measurement": "glycogen staining (histopathology)", "setting": "[4]", "result": "reduced"}, {"measurement": "GAA activity", "setting": "[5]; cerebellum, 5 weeks after initiation of ERT, clenbuterol p=0.08, albuterol p=0.09", "result": "trend toward increased GAA activity"}, {"measurement": "GAA activity", "setting": "[5]; tibialis anterior only, albuterol plus ERT v. ERT alone", "result": "increased"}, {"measurement": "GAA activity in tissues with reduced glycogen content", "setting": "[5]; β2 agonist plus ERT v. ERT alone", "result": "unchanged"}]}, {"compound": "rhGAA: recombinant human acid α-glucosidase used for enzyme replacement therapy (ERT) in Pompe disease", "values": [{"measurement": "glycogen clearance", "setting": "[6]; DKO mouse heart, rhGAA 100 mg/kg", "result": 95, "unit": "%"}, {"measurement": "glycogen clearance", "setting": "[6]; heart of DKO mice, rhGAA 20 mg/kg", "result": 7, "unit": "%"}, {"measurement": "glycogen depletion", "setting": "[6]; quadriceps of DKO mice, rhGAA 20 mg/kg", "result": 8, "unit": "%"}, {"measurement": "GAA decrease in DKO v. GAA-KO (%)", "setting": "[7]; Diaphragm", "result": 2, "unit": "%"}, {"measurement": "GAA decrease in DKO v. GAA-KO (%)", "setting": "[7]; Gastrocnemius", "result": 72, "unit": "%"}, {"measurement": "GAA decrease in DKO v. GAA-KO (%)", "setting": "[7]; Heart", "result": 47, "unit": "%"}, {"measurement": "GAA decrease in DKO v. GAA-KO (%)", "setting": "[7]; Quadriceps", "result": 79, "unit": "%"}, {"measurement": "GAA decrease in DKO v. GAA-KO (%)", "setting": "[7]; Triceps", "result": 76, "unit": "%"}, {"measurement": "reduced rhGAA uptake in DKO mice as compared with Pompe mice", "setting": "[7]; heart, 100 mg/kg rhGAA", "result": 50, "unit": "%"}, {"measurement": "rhGAA uptake (enzyme activity) in DKO v. GAA-KO mice", "setting": "[7]; skeletal tissues (quadriceps, triceps, gastrocnemius), 20 and 100 mg/kg", "result": "significantly decreased uptake"}, {"measurement": "glycogen clearance", "setting": "[8]; GAA-KO mouse heart, rhGAA 100 mg/kg", "result": 99, "unit": "%"}, {"measurement": "glycogen clearance", "setting": "[8]; heart of Pompe mice, rhGAA 20 mg/kg", "result": 77, "unit": "%"}, {"measurement": "glycogen depletion", "setting": "[8]; quadriceps of GAA-KO mice, rhGAA 20 mg/kg", "result": 55, "unit": "%"}, {"measurement": "Glycogen increase in DKO v. GAA-KO (%)", "setting": "[9]; Diaphragm", "result": 192, "unit": "%"}, {"measurement": "Glycogen increase in DKO v. GAA-KO (%)", "setting": "[9]; Gastrocnemius", "result": 340, "unit": "%"}, {"measurement": "Glycogen increase in DKO v. GAA-KO (%)", "setting": "[9]; Heart", "result": 1600, "unit": "%"}, {"measurement": "Glycogen increase in DKO v. GAA-KO (%)", "setting": "[9]; Quadriceps", "result": 300, "unit": "%"}, {"measurement": "Glycogen increase in DKO v. GAA-KO (%)", "setting": "[9]; Triceps", "result": 425, "unit": "%"}]}]}
